Results on six molecules are retold here after PMC8805316, “NanoBRET in C. elegans illuminates functional receptor interactions in real time” (BMC Molecular and Cell Biology, 2022).

Entries after “also recorded” stand apart in the source; their conditions may differ. Non-standard residues stand in square brackets, D forms with d. Residues, ends and D or L forms follow the SMILES beside them. No end group written: not given here. *: point of attachment. 5TAMRA = CN(C)c1ccc2c(c1)Oc1cc(N(C)C)ccc1C21OC(=O)c2cc(C(=O)*)ccc21; Dap(TAM) = not defined here; Dap = NC[C@H](N)C(=O)O

In one test the test system is LAT-1. Briefly: cAMP accumulation assay (AlphaScreen), COS-7 cells with LAT-1 plasmid (Fig. S3C). Type of test: cell-based, C. elegans. Particulars: for cAMP conc.: LAT-1 plasmid, 100 μM peptide, mean ± SEM of 5 independent assays, DMSO control 4.66 ± 1.72. As for the experimental part:
(§1) All in vitro experiments were carried out using either HEK293 cells (Homo sapiens, embryonic kidney, DSMZ (German Collection of Microorganisms and Cell Cultures) ACC 305) or COS-7 cells (African green monkey, cercopithecus aethiops, kidney, DSMZ (German Collection of Microorganisms and Cell Cultures) ACC 60). HEK293 cells were kept in Dulbecco’s Modified Eagle’s Medium (DMEM) with Ham’s F-12 (v/v) and 15% (v/v) heat-inactivated fetal calf serum (FCS), while COS-7 cells were cultured in DMEM with 10% (v/v) FCS and 1% (v/v) Penicillin-Streptomycin. All cells were kept at 37 °C under a humidified atmosphere (5% CO2).
(§2) Gs-coupling of LAT-1, quantified by detection of intracellular cAMP accumulation, was measured using an AlphaScreen cAMP detection kit (PerkinElmer, USA). Briefly, COS-7 cells (15,000 cells/ well) were transfected in 96-well plates with either 200 ng of LAT-1-encoding plasmid or empty vector using Lipofectamine2000 (ThermoFisher Scientific). 48 h post transfection, the cells were stimulated with 100 μM peptide solution in HBSS containing 1 mM 3-isobutyl-1-methylxanthine (IBMX) and 1% DMSO and control buffer without peptide for 30 min at 37 °C. Subsequently, the medium was displaced with lysis buffer (5 mM HEPES, 0.3% Tween-20, 0.1% BSA, 1 mM IBMX, pH 7.6) and plates were frozen at − 80 °C until further use. The following steps were conducted as stated in the manufactures’ protocol of the AlphaScreen cAMP detection kit (PerkinElmer, USA) and an EnVision plate reader (PerkinElmer, USA) was used to detect the fluorescence. The data were analyzed with GraphPad Prism version 6 (GraphPad Software) are presented in x-fold over the corresponding empty vector control.

Test [1] deals with empty vector-transfected COS-7 cells. Nature of the test: cAMP accumulation assay (AlphaScreen), COS-7 cells with empty vector (Fig. S3C). Particulars: 100 μM peptide, mean ± SEM of 5 independent assays, DMSO control 5.39 ± 2.15. The class given is cell-based, African green monkey. The procedure:
as §1
as §2, with “48 h post transfection, the cells were stimulated with 100 μM peptide solution in HBSS containing 1 mM 3-isobutyl-1-methylxanthine (IBMX) and 1% DMSO and control buffer without peptide for 30 min at 37 °C. Subsequently, the medium was displaced with lysis buffer (5 mM HEPES, 0.3% Tween-20, 0.1% BSA, 1 mM IBMX, pH 7.6) and plates were frozen at − 80 °C until further use.” left out

A further test deals with T1, Nluc::LAT-1 (Caenorhabditis elegans, UniProt G5EDW2).
T1 construct: Lat-1p::lat-1(1–249)::Nluc::lat-1(250–650)::GFP::lat-1(651–1015); GFP, inserted between residues 650 and 651 (so in the source); expressed in transfected cells; host or cells: transgenic C. elegans (extrachromosomal array, lat-1 knockout background), incised young adult worms
Nature of the test: biochemical. The class given is binding, C. elegans. The procedure:
All measurements were conducted using synchronized young adult worms (1 day post L4). Individuals were washed twice with HBSS (Hanks’ balanced salt solution with 25 mM HEPES, pH 7.4, 37 °C) and the number of worms/ μl was calculated.
(§3) For luminescence measurements of intact worms, animals (1; 10; 50; 100 or 500) were directly transferred into the wells of a white flat-bottom 384-well plate in 50 μl HBSS buffer. Worms to be cut were pre-washed with M9 + 0.1% Tween to avoid sticking of worms to the dish and subsequently transferred in 2 ml of HBSS. Incisions were made in the middle of the body with a scalpel blade and worms were immediately afterwards transferred with a glass pipette into HBSS buffer on ice. For mechanically cracking, a worm suspension was homogenized in tubes with 150 μl HBSS and six glass beads (Ø = 3 mm) using with a Precellys homogenizer (Bertin instruments, France) for 40 s at 5000 rpm. Samples were placed on ice until further usage.
For BRET binding assays in vivo, the nanoluciferase (Nluc) was applied as energy donor and either peptides labeled with the TAM fluorophore or the mNeonGreen fluorescent protein fused to a receptor served as acceptor.
30 Nluc-expressing worms with incisions in 50 μl BRET buffer were incubated with dissolving buffer or peptide solutions of final concentrations ranging from 0.05–10 μM in a 384-well plate. During a 25 min incubation with gentle shaking, 10 μl Nano-Glo Live Cell Reagent (N2011, Promega, USA) of a 5x stock were added according to manufacturer’s instructions after 15 min to each well. Competition-binding assays were performed similarly, but additionally, unlabeled peptide (final concentrations 0.016–10 μM) was pipetted into each well and 5 μl of a 10x stock Nano-Glo Live cell reagent was applied after 15 min.
Luminescence (L) and fluorescence (F) were detected with a microplate plate reader (Tecan Spark) using the following filter set: donor = 430–470 nm, acceptor = 550–700 nm with 1000 ms integration time. BRET was calculated by dividing F values by L values. For each experiment, the background signal of donor-only cells was subtracted, such that the BRET ratio at 0 μM ligand equals 0.00. In Fig. 3B (left) and Fig. 3D, the mean of n = 4 (NPR-11) or n = 3 (LAT-1) independent, individually background-corrected single experiments is presented.

The next test has as its system Nanoluciferase (Nluc). Briefly: Luminescence of luciferase substrate in cut Nluc-expressing worms (Fig. 1E). Conditions: vs coelenterazine H. The procedure: as §3
50 prepared worms were transferred into a white flat bottom 384-well plate in a total volume of 50 μl HBSS + 25 mM HEPES (pH 7.4; denoted BRET buffer). Immediately after adding coelenterazine H solution (Nanolight/ Prolume, USA) to a final concentration of 4 μM, luminescence was detected using an EnVision plate reader (PerkinElmer, USA) and a NanoBRET Blue 460/80 nm filter with 1000 ms integration time (five repeats every 5 min for long time observation).

The target in test [2] is Nluc::NPR-11::eYFP in membranes of transfected HEK293 cells (C. elegans) (UniProt Q18179).
Test [3] has the same target. Briefly: FRET or BRET; NanoBRET binding in vitro: membranes of HEK293 cells transiently transfected with Nluc::NPR-11::eYFP (0.5 μg total protein), TAM-labeled peptide 10^-12 M to 10^-5 M, BRET buffer with 0.1% BSA and Pefabloc SC, 10 min, room temperature, coelenterazine H 4 μM; three-parameter logistic …. In general terms: Bioluminescence resonance energy transfer reports proximity on the nanometre scale.

The target of test [4] is Nluc::NPR-11 (Nanoluciferase fused to the extracellular N terminus of the neuropeptide receptor NPR-11), expressed in C. elegans (C. elegans) (UniProt Q18179). Briefly: FRET or BRET; NanoBRET binding in vivo: 30 Nluc-expressing C. elegans (L4 + 1 day) with incisions in 50 μl BRET buffer (HBSS + 25 mM HEPES, pH 7.4), TAM-labeled peptide 0.05-10 μM, 25 min incubation, Nano-Glo Live Cell Reagent (furimazine); Kd from one-site total and nonspecific binding fit with the scrambled peptide as nonspecific.

The target is the same in test [5]. The description is as above. This is another data set of the same source.
For test [6], the target named is T2, Nluc::LAT-1 (lat-1p::lat-1(1-249)::Nluc::lat-1(250-650)::GFP::lat-1(651-1015)), expressed in C. elegans (C. elegans, UniProt G5EDW2 28-1014).
T2 sequence (looked up): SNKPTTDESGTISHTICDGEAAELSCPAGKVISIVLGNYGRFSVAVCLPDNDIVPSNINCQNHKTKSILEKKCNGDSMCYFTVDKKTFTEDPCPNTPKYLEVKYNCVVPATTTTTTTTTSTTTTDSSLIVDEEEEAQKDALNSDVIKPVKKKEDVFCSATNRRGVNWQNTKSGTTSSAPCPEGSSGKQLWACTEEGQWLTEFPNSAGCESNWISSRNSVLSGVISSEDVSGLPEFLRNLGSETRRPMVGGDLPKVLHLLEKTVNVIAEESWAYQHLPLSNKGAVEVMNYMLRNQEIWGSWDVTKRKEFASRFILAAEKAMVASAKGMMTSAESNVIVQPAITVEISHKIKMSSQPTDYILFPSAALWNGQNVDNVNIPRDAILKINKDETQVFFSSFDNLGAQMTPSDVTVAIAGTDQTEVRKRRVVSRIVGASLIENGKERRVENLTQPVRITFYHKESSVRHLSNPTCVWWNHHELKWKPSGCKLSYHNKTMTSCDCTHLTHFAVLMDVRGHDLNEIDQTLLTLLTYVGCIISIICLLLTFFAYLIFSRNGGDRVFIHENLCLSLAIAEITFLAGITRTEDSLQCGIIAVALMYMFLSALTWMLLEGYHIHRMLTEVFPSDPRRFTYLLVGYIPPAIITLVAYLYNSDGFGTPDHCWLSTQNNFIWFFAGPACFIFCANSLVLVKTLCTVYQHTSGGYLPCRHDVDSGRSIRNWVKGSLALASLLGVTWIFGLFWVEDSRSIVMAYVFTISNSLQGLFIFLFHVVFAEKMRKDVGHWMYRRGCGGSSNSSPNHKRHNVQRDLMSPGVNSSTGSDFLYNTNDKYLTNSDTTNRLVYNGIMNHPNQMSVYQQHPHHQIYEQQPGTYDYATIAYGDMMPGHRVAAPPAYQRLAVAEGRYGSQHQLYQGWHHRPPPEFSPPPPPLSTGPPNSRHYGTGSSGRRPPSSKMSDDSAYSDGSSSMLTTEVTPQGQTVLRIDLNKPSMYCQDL
Nature of the test: cell-based or functional assay.

Nluc::NPR-11::eYFP in membranes of transfected HEK293 cells (C. elegans), sequence (Q18179 whole entry): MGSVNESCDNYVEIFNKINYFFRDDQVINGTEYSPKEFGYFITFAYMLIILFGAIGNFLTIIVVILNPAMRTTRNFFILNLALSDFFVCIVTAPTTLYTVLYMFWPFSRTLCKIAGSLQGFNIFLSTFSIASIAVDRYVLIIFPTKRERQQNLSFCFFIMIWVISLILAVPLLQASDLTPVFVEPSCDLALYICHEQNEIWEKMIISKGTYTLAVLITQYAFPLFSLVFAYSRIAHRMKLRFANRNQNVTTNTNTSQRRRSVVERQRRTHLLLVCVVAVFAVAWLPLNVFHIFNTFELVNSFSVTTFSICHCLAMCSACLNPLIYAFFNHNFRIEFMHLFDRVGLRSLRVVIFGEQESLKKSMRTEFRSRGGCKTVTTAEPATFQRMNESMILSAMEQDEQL
Nluc::NPR-11 (Nanoluciferase fused to the extracellular N terminus of the neuropeptide receptor NPR-11), expressed in C. elegans (C. elegans), sequence (Q18179 whole entry, the tested form may be a part): as the sequence (Q18179 whole entry) above

A word on the Kd: it is the free concentration of one partner at which half of the binding sites on the other are occupied at equilibrium, for simple one-to-one binding. Turning to `CSCC[C@H](NC(=O)[C@H](CC(C)C)NC(=O)[C@@H](NC(=O)[C@H](C)NC(=O)[C@H](Cc1ccccc1)NC(=O)[C@H](Cc1c[nH]cn1)NC(=O)[C@@H](N)[C@@H](C)O)C(C)C)C(=O)N[C@@H](CC(=O)O)C(=O)N[C@H](C(=O)N[C@@H](CCCNC(=N)N)C(=O)NCC(=O)N[C@@H](Cc1c[nH]cn1)C(=O)N[C@@H](CNC(=O)c1ccc2c(c1)C(=O)OC21c2ccc(N(C)C)cc2Oc2cc(N(C)C)ccc21)C(=O)O)C(C)C` [TAM-pLAT-1] (H-THFAVLMDVRGH[Dap](5TAMRA)-OH), the “cAMP accumulation over control” value in the test with LAT-1 (100 μM, 30 min, 37 °C, IBMX) was 1.5 -fold. For the same molecule, the cAMP conc. with LAT-1 is 3.69 ± 0.70 nM; in [1] it was 2.86 ± 0.60 nM. For the same molecule, on Nluc::LAT-1, the Kd was above 10000 nM.
For `CSCC[C@H](N)C(=O)N[C@@H](CC(=O)O)C(=O)N[C@H](C(=O)N[C@@H](CCCNC(=N)N)C(=O)N[C@@H](C)C(=O)N[C@H](C(=O)N[C@@H](Cc1c[nH]cn1)C(=O)N[C@@H](Cc1c[nH]cn1)C(=O)NCC(=O)N[C@H](C(=O)N[C@@H](CC(C)C)C(=O)N[C@@H](Cc1ccccc1)C(=O)N[C@@H](CNC(=O)c1ccc2c(c1)C(=O)OC21c2ccc(N(C)C)cc2Oc2cc(N(C)C)ccc21)C(=O)O)C(C)C)C(C)C)[C@@H](C)O` [TAM-scrpLAT-1] (H-MDTRAVHHGVLF[Dap](5TAMRA)-OH), in the test on LAT-1 (100 μM), the “cAMP accumulation / receptor activation” value is listed as “did not lead to a cAMP accumulation; also recorded: does not activate the receptor”. The cAMP conc. in the test on LAT-1 came out at 4.63 ± 0.81 nM; in test [1] it was 4.45 ± 0.71 nM. For the same molecule, the dissociation constant (Kd) on Nluc::LAT-1 was above 10000 nM. Moreover, the “BRET ratio relative to TAM-pLAT-1” value at Nluc::LAT-1 (at 10 μM) was “one-third higher”.
Turning to `O=c1c(Cc2ccco2)nc2c(Cc3ccccc3)[nH]c(-c3ccccc3)cn1-2` [furimazine], in the test with Nanoluciferase (Nluc), the “luminescence signal over time” value is “stable values over the entire time period; also recorded: lower but more stable luminescence signal”.
The molecule FLP-34-1 (unlabeled) (peptide) showed a cAMP reporter gene assay, forskolin-stimulated HEK293 cells transfected with NPR-11::eYFP (no Nluc): EC50 of NPR-11 activation in [2] of 2.3 nM.
In turn, “TAM-FLP-34-1 (tetramethylrhodamine-labeled FLP-34-1) (peptide)” showed a cAMP reporter gene assay, forskolin-stimulated HEK293 cells transfected with NPR-11::eYFP (no Nluc): EC50 of NPR-11 activation in test [2] of 0.5 nM. In addition, the dissociation constant (Kd) in test [3] worked out at 388 nM; in test [4], 1500 nM. Further, in test [5], the increase in the BRET ratio at 10 μM was found to be 0.08.
Regarding THFAVLMDVRGH-{Dap(TAM)} (reading uncertain) [TAM-pLAT-1 (TAM-labeled synthetic peptide derived from the tethered agonist sequence of LAT-1)], in test [6], the “cAMP accumulation (AlphaScreen) in COS-7 cells transfected with a LAT-1-encoding plasmid, 100 μM peptide” value was found to be 1.5 fold over control.
